# Reference: PubChem BioAssay (NCI)
#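 Exposure lasted 48 hours, with cells grown in 96-well plates and compounds tested at five concentrations. Abbreviation: GI50, concentration required for 50% inhibition of growth. TGI: total growth inhibition.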
# Tests used:
# Assay in all cases: DTP human tumour cell line panel, 48 h
# SF-539 CNS = tested on: SF-539 CNS
# MDA-MB-435 = tested on: MDA-MB-435
# OVCAR-3 ovarian = tested on: OVCAR-3 ovarian
# UACC-62 melanoma = tested on: UACC-62 melanoma
# SNB-19 CNS = tested on: SNB-19 CNS
# HT29 colon = tested on: HT29 colon
# UO-31 renal = tested on: UO-31 renal
# SK-MEL-2 melanoma = tested on: SK-MEL-2 melanoma
# NCI-H23 lung = tested on: NCI-H23 lung
# UACC-257 melanoma = tested on: UACC-257 melanoma
Compound,GI50 (SF-539 CNS),TGI (SF-539 CNS),GI50 (MDA-MB-435),TGI (MDA-MB-435),GI50 (OVCAR-3 ovarian),TGI (OVCAR-3 ovarian),GI50 (UACC-62 melanoma),TGI (UACC-62 melanoma),GI50 (SNB-19 CNS),TGI (SNB-19 CNS),GI50 (HT29 colon),TGI (HT29 colon),GI50 (UO-31 renal),TGI (UO-31 renal),GI50 (SK-MEL-2 melanoma),TGI (SK-MEL-2 melanoma),GI50 (NCI-H23 lung),TGI (NCI-H23 lung),GI50 (UACC-257 melanoma),TGI (UACC-257 melanoma)
Cc1cc(=O)oc2ccc(OC/C=C3\CCC(=O)O3)cc12,7.95 µM,25.5 µM,7.65 µM,22.8 µM,3.59 µM,18.4 µM,10.3 µM,22.8 µM,13 µM,30.8 µM,3.62 µM,15.5 µM,2.09 µM,10.2 µM,10.7 µM,30.6 µM,10.4 µM,25.2 µM,12.3 µM,28.7 µM
COc1ccc2nc3cc(Cl)ccc3c(NCCCNCCO)c2c1,0.508 µM,2.35 µM,0.522 µM,1.88 µM,0.588 µM,2.86 µM,0.807 µM,2.54 µM,0.5 µM,3.79 µM,0.292 µM,1.41 µM,0.602 µM,3.19 µM,1.32 µM,2.79 µM,0.499 µM,2.48 µM,1.82 µM,3.48 µM
CN(C)c1ccc(/C=C\c2ccnc3ccccc23)cc1,5.17 µM,25.8 µM,1.47 µM,> 30.5 µM,7.88 µM,> 60 µM,6.18 µM,> 100 µM,10.6 µM,> 100 µM,2.49 µM,12.4 µM,4.4 µM,68.7 µM,21.2 µM,> 100 µM,3.63 µM,63.4 µM,8.39 µM,79.4 µM
C[C@@]1([C@H](OC(=O)c2ccccc2)C(N)=O)CO1,21.6 µM,55.7 µM,17.8 µM,36 µM,16.4 µM,35.4 µM,14.9 µM,29.4 µM,30.5 µM,93.6 µM,27 µM,> 100 µM,20.2 µM,51.8 µM,22.1 µM,> 100 µM,20.2 µM,61.5 µM,43.7 µM,> 100 µM
CCN(CC)c1ccc(/C=C/C(=O)c2ccc(Nc3nc(Nc4ccccc4)nc(Nc4ccccc4)n3)cc2)cc1,9.08 µM,> 100 µM,9.26 µM,> 100 µM,2.12 µM,20 µM,57.4 µM,> 100 µM,41.3 µM,> 100 µM,20.3 µM,> 100 µM,2.69 µM,> 100 µM,4.04 µM,85.2 µM,11.1 µM,> 100 µM,20.4 µM,> 100 µM
O=C1CC2OCC=C3CN4CCC56c7ccccc7N1C5C2C3CC46O (stereo not drawn),–,> 100 µM,–,> 100 µM,–,> 100 µM,–,> 100 µM,–,> 100 µM,–,> 100 µM,–,> 100 µM,–,> 100 µM,–,> 100 µM,–,> 100 µM
CC(=O)Nc1ccc(C(=O)CCl)cc1,3.63 µM,14.7 µM,4.74 µM,16.6 µM,2.55 µM,5.82 µM,8.3 µM,21.6 µM,17.2 µM,45.1 µM,2.45 µM,5.04 µM,1.71 µM,3.26 µM,13.3 µM,27.8 µM,11.4 µM,31.6 µM,10.9 µM,23.3 µM
COc1cc(/C=C/C(=O)c2cccc(-n3cc(-c4cc(OC)c(OC)c(OC)c4)[nH]c3=O)c2)cc(OC)c1OC,3.12 µM,18 µM,2.11 µM,9.92 µM,1.48 µM,4.32 µM,1.87 µM,4.01 µM,4.07 µM,15.8 µM,1.7 µM,7.03 µM,0.962 µM,3.13 µM,3.02 µM,7.63 µM,2 µM,4.68 µM,2.22 µM,5.45 µM
O=C(Nc1ccc(Oc2ccc(F)cc2)cc1)[C@@H]1C[C@@H](Cc2ccc(F)cc2)CN1C(=O)Cn1ccnn1,10.6 µM,26.6 µM,7.16 µM,23.7 µM,8.12 µM,26.7 µM,6.14 µM,20.9 µM,9.45 µM,> 100 µM,4.2 µM,15 µM,3.5 µM,25.2 µM,8.05 µM,23 µM,12.1 µM,35.5 µM,8.04 µM,24.9 µM
Oc1ccc(Br)cc1C=Nc1cccc(C(F)(F)F)c1,–,99.1 µM,–,> 100 µM,–,> 100 µM,–,71.1 µM,–,> 100 µM,–,> 100 µM,–,> 100 µM,–,49 µM,–,> 100 µM,–,> 100 µM
O=C1Nc2ccc(Cl)cc2/C1=C\c1c(-c2ccc(Cl)cc2)nc2sc(C3CC3)nn12,1.88 µM,3.78 µM,9.36 µM,28.9 µM,4.16 µM,15.2 µM,3.06 µM,14.5 µM,3.59 µM,16.7 µM,5.61 µM,17.4 µM,2.63 µM,14.8 µM,4.9 µM,19.8 µM,4.39 µM,17.6 µM,3.36 µM,14.4 µM
CCOC(=O)[C@@H](C)C[C@H](Cc1ccccc1)NC(=O)c1csc([C@@H](C[C@H](C(C)C)N(C)C(=O)[C@@H](NC(=O)[C@H]2CCCCN2C)C(C)(C)CC)OC(C)=O)n1,0.00226 µM,0.00791 µM,< 0.00167 µM,< 0.00167 µM,< 0.00167 µM,–,< 0.00167 µM,> 16.7 µM,< 0.00167 µM,> 16.7 µM,< 0.00167 µM,> 6.79 µM,0.0132 µM,14.1 µM,< 0.00167 µM,> 16.7 µM,0.00251 µM,> 16.7 µM,0.0442 µM,> 16.7 µM
O=C(CS(=O)(=O)c1nc2ccccc2nc1-c1ccccc1)Nc1ccc(F)cc1,18.7 µM,60.2 µM,88 µM,> 100 µM,30.6 µM,> 100 µM,40.1 µM,> 100 µM,98.9 µM,> 100 µM,33.6 µM,> 100 µM,59.1 µM,> 100 µM,51.9 µM,> 100 µM,> 100 µM,> 100 µM,> 100 µM,> 100 µM
NC(N)=N/N=C/c1c(-c2ccsc2)nc2n1CCS2,14.4 µM,30.3 µM,19.8 µM,47.9 µM,0.365 µM,24.1 µM,21.6 µM,69.9 µM,26.9 µM,> 100 µM,51 µM,> 100 µM,65.5 µM,> 100 µM,51.9 µM,> 100 µM,23.8 µM,80 µM,20.8 µM,53.1 µM
C=C1C(=O)O[C@H]2[C@H]1CC/C(COC(=O)c1cc(OC)c(OC)c(OC)c1)=C\CC[C@@]1(C)O[C@@H]21,0.895 µM,2.24 µM,1.64 µM,4.13 µM,0.39 µM,1.44 µM,1.18 µM,2.67 µM,2.55 µM,10.6 µM,0.441 µM,2.09 µM,0.402 µM,1.7 µM,1.6 µM,3.63 µM,1.7 µM,3.95 µM,1.39 µM,3.12 µM
NS(=O)(=O)c1ccc(Nc2cc(-c3ccc(O)c(F)c3)[nH]n2)cc1,13.5 µM,> 25 µM,> 23.5 µM,> 25 µM,9.43 µM,> 25 µM,> 25 µM,> 25 µM,> 25 µM,> 25 µM,> 25 µM,> 25 µM,> 25 µM,> 25 µM,11.4 µM,> 25 µM,> 25 µM,> 25 µM,> 25 µM,> 25 µM
O=C1NC(=NCc2ccccc2Cl)S/C1=C\c1ccc2ncccc2c1,3.59 µM,> 25 µM,6.83 µM,> 25 µM,17.6 µM,> 25 µM,17.8 µM,> 25 µM,13.2 µM,> 25 µM,> 25 µM,> 25 µM,> 13.6 µM,> 25 µM,8.5 µM,> 22.3 µM,13.5 µM,> 25 µM,> 25 µM,> 25 µM
O=C1CC(c2c[nH]c3ccc(F)cc23)C(=O)N1 (stereo not drawn),> 100 µM,> 100 µM,> 100 µM,> 100 µM,> 100 µM,> 100 µM,> 100 µM,> 100 µM,> 100 µM,> 100 µM,> 100 µM,> 100 µM,> 100 µM,> 100 µM,> 100 µM,> 100 µM,> 100 µM,> 100 µM,> 100 µM,> 100 µM
CCCCN(CCCC)C(=O)[C@H](CC)[C@@H]1CC[C@@H](C)[C@@H]([C@H](C)[C@@H](O)[C@@H](C)C(=O)[C@H](CC)C2O[C@]3(C=C[C@@H](O)[C@]4(CC[C@@](C)([C@H]5CC[C@](O)(CC)[C@H](C)O5)O4)O3)[C@H](C)C[C@@H]2C)O1 (stereo partly drawn),1.88 µM,4.2 µM,2.92 µM,10.1 µM,1.87 µM,4.84 µM,1.47 µM,3.6 µM,3.46 µM,> 100 µM,2.88 µM,12.4 µM,2.26 µM,8.6 µM,2.67 µM,7.53 µM,2.17 µM,5.96 µM,2.9 µM,9.71 µM
C#Cc1cccc(Nc2ncnc3cc(NC(=O)CCl)ccc23)c1,3.48 µM,6.82 µM,1.27 µM,5.17 µM,1.37 µM,5.42 µM,1.53 µM,4.99 µM,2.96 µM,6.03 µM,1.06 µM,5.74 µM,2.55 µM,5.6 µM,3.82 µM,7.77 µM,3.26 µM,8.01 µM,3.76 µM,8.12 µM
O=C1/C(=C/c2ccc(Cl)c(Cl)c2)CN(C(=O)C(Cl)Cl)C/C1=C\c1ccc(Cl)c(Cl)c1,0.184 µM,0.444 µM,0.222 µM,0.546 µM,0.0571 µM,0.237 µM,0.197 µM,0.459 µM,0.11 µM,0.306 µM,0.071 µM,2.07 µM,0.133 µM,0.267 µM,0.801 µM,3.14 µM,0.136 µM,0.567 µM,0.666 µM,2.24 µM
CSc1ccc(C2=C(c3ccccc3)C(=O)OC2)cc1,1.49 µM,12.3 µM,0.0923 µM,0.364 µM,0.188 µM,0.568 µM,0.715 µM,53.8 µM,0.804 µM,> 100 µM,0.239 µM,> 100 µM,2.66 µM,> 80.3 µM,1.64 µM,> 100 µM,3.78 µM,> 41.1 µM,–,> 100 µM
O=C1NC(=S)S/C1=C\c1cn(-c2ccccc2)nc1-c1ccccc1,5.53 µM,21.1 µM,4.91 µM,36.6 µM,11.6 µM,29 µM,3.36 µM,15.1 µM,6.14 µM,> 100 µM,12.5 µM,38.3 µM,4.39 µM,25.2 µM,4.18 µM,19.4 µM,2.68 µM,15.9 µM,13.2 µM,73.9 µM
